In assay [1] the test system is wt and cTnI-G203S cardiac myocytes. More on the design: method as in PMID 19166857, PMID 24969422, PMID 24958783. To be noted: cited from earlier work.
Assay [2] has the same test system. The assay is described as follows: Mitochondrial membrane potential (JC-1) after in vitro peptide exposure. The format is cell-based, mouse. To be noted: 10 μM BayK(−), calcium-free HBS. On the procedure:
Fluorescence was measured on a Hamamatsu Orca ER digital camera attached to an inverted Nikon TE2000-U microscope. Fluorescent indicator 5,5′,6,6′-tetrachloro-1,1′,3,3′-tetraethylbenzimidazolylcarbocyanine iodide was used to measure Ψm in cardiac myocytes, as previously described (JC-1, Molecular Probes) ([61]). Autofluorescence was used to measure flavoprotein oxidation in cardiac myocytes based on previously described methods ([13], [29], [62]). Responses to drugs were reported as a percentage increase from the basal average. Detailed methods are provided in SI Appendix.
Supporting Materials and Methods
Isolation of ventricular myocytes
Myocytes were isolated from wt and cTnI-G203S mice. Animals were anesthetized with pentobarbitone sodium (240 mg/kg) via intraperitoneal injection prior to excision of the heart. Cells were isolated as previously described (1-3). Mouse hearts were excised, cannulated onto a Langendorff apparatus via the aorta, and perfused with Krebs-Henseleit Buffer (KHB) containing […]
O2/CO2 at 37°C) for 4 min at 37°C. Hearts were then perfused with KHB supplemented with 2.4 mg/ml collagenase B for 3 min, followed by a further 8 min perfusion in the presence of 40 μM calcium. Following perfusion, aorta and atria were removed then ventricles teased apart and triturated to dissociate myocytes into suspension. Myocyte suspension was spun at 500 RPM for 3 min, supernatant discarded, and myocytes resuspended in calcium free Hepes-Buffered Solution […]
Hepes and 2 glutamine (pH = 7.4 at 37°C) in the presence or absence of 3 mM EGTA (for 0 mM calcium experiments). For calcium containing experiments, calcium was titrated back to achieve a final extracellular concentration of 1.8 mM. […]
Axopatch 200B voltage-clamp amplifier (Molecular Devices) with a Digidata 1440A interface and pClamp10.5 software (Molecular Devices). A Ag/AgCl electrode was used to ground the bath. Once the whole-cell configuration was achieved, the holding potential was set at –80 mV. […]
For calcium transient studies, microelectrodes contained (in mM): KCl 20, NaCl 10, MgCl2 2, CaCl2 0.03, potassium L-glutamate 120, EGTA 0.1, HEPES 5 and MgATP 5 (pH adjusted to 7.2 at 37°C with NaOH) supplemented with 2 µM Fura-2 AM (Fura-2, Molecular Probes, Eugene, Oregon). […]
NaCl 140, KCl 5.4, CaCl2 1, MgCl2 0.5, HEPES 5.5 and glucose 11 (pH adjusted to 7.6 with NaOH), […]
Fluorescence was measured on a Hamamatsu Orca ER digital camera attached to an inverted Nikon TE2000-U microscope. […]
Additionally, individual 580 nm and 535 nm wavelength signals were assessed in each experiment to determine whether the fluorescent indicator was accurately measuring Ψm. […] Ratiometric JC-1 or flavoprotein fluorescent signals were quantified by manually tracing myocytes and subtracting an equivalent background region […]

In assay [3] the test system is cardiac L-type calcium channel (ICa-L). More on the design: method as in PMID 19166857, PMID 24969422, PMID 24958783. To be noted: wt myocytes; cited from earlier work.

As for QQLEEDLKGYLDWITQAE [AID-TAT], in assay [1], the “elevated Ψm in response to activation of ICa-L” value was “attenuates elevated Ψm”. The “increase in Ψm (JC-1) in response to BayK(−)” value is listed as “attenuated the response” in assay [2] (cTnI-G203S myocytes, 1 μM peptide in vitro); “significantly attenuated the response” in assay [2] (cTnI-G203S myocytes, 10 μM peptide in vitro); “attenuated the response in cTnI-G203S but not wt myocytes” in assay [2] (wt myocytes, 1 μM peptide in vitro); “significantly attenuated the response” in assay [2] (wt myocytes, 10 μM peptide in vitro). In assay [3], the “inactivation rate of the cardiac ICa-L” value is on record as “slows the inactivation rate”.

The values are drawn from publication PMC7502707, “Characterization and validation of a preventative therapy for hypertrophic cardiomyopathy in a murine model of the disease” (Proceedings of the National Academy of Sciences of the …, 2020).
